Measured values as given in patent publication US20140241988A1, “METHODS AND COMPOSITIONS FOR TREATING ATRIAL FIBRILLATION” (The Regents of The University of Michigan, priority 2013, published 2014).
Entries after “also recorded” stand apart in the source; their conditions may differ.

What was measured:
[1] = test system: adult sheep atrial myofibroblasts; test: Cell proliferation assay (WST reagent); assay type: cell-based; conditions: Gal-3 1-30 μg/ml, 24 hours, SFM
Description: (§1) Wound healing experiments were performed to investigate if exogenous Gal-3 can increase myofibroblast migration in vitro (FIG. 3). Adult sheep atrial fibroblasts were cultured in 96-well plates until confluent. Before serum starvation, cells were stained with cell tracker dye and DAPI. A wound was created by scraping a semi-confluent monolayer of cells with a 1 ml pipette tip. Thereafter, cells underwent serum starvation in DMEM with 5% FBS for 6 hrs. Comparisons were made between untreated and Gal-3 treated (1 μg/ml or 10 μg ml) cells. The wound was imaged at 4 different locations at 3 different time points (days 0, 1 and 2). The size of the wound was quantified using the NIS element program by Nikon. […] Next, to investigate the effects of Gal-3 on myofibroblast proliferation, adult sheep atrial fibroblasts were treated with recombinant human Gal-3 (EMD chemicals, USA) for 24 hours in the presence of SFM. FM was included as a positive control. Cell proliferation was measured using cell proliferation reagent WST (Roche Diagnostics, USA). […] Such concentrations are in the same range used previously (Sharma et al., Circulation. 2004; 110:3121-3128) to investigate Gal-3 induced fibroblast proliferation in the cardiomyopathic heart.

[2] = test system: adult sheep atrial fibroblasts; test: Wound healing (migration) assay; assay type: cell-based; conditions: Gal-3 10 μg/ml, days 0-2
Description: as §1

[3] = test system: adult rat ventricular myocytes; test: Whole-cell patch clamp, transient outward potassium current (Ito); assay type: cell-based; conditions: 72 hr
Source text: The extracellular solution for transient outward potassium current (Ito) contained (in mM): 136 NaCl, 4 KCl, 1.8 CaCl2, 2 MgCl2, 10 HEPES, 0.03 tetrodotoxin, 0.01 nifedipine, and 14 glucose, pH 7.35. The pipette solution contained (in mM):135 KCl, 1 MgCl2, 10 EGTA, 10 HEPES, 5 glucose, pH 7.2. Voltage-gated outward K+ currents were evoked during 5-s depolarizing voltage steps to potentials between −40 and +60 mV from a holding potential of −70 mV; voltage steps were presented in 10 mV increments at 15 s intervals
(§2) In all experiments, cells were exposed to one of the following for 72 hrs prior to the experiment: control medium, FCM or TGF-β1.

[4] = test system: adult rat ventricular myocytes; test: Current clamp action potential recording; assay type: cell-based
Description: Action potentials were recorded from individual myocytes using the current clamp mode of the MultiClamp 700B amplifier after gigaseal formation and patch break. Stimulus pulses (1-2 ms duration) were generated using a World Precision Instruments DS8000 stimulator (Sarasota, Fla.). The bath solution contained (in mM): NaCl: 148, KCl: 5.4, MgCl2: 1, CaCl2 1.8, NaH2PO4: 0.4, HEPES: 15, Glucose: 5.5, pH 7.4 with NaOH. The pipette solution contained (in mM), KCl: 20, K-aspartate: 90, KH2PO4: 10, EDTA: 5.0, K2ATP: 1.9, HEPES: 5.0 and Mg2+ 7.9; pH 7.2 (KOH)
as §2

[5] = test system: adult rat ventricular myocytes; test: Whole-cell patch clamp, peak inward sodium current (INa); assay type: cell-based
Description: (§3) Cell Treatment: Isolated adult rat cardiac myocytes were treated with FCM or TGF-β1 (R and D systems, Minneapolis, Minn.) for 3 days in serum free medium. For PI3K pathway inhibition cells were pretreated (30 min) with 10 μM […] (Cayman Chemicals, Ann Arbor) before the treatment with TGF-β1. mRNA analysis by quantitative PCR (qPCR): Cardiac myocytes were washed with PBS and lysed with lysis buffer. RNA was isolated from the myocardial tissue using RNAeasy kit from Qiagen (Qiagen, Valencia, Calif.) according to the manufacturer's instructions. Isolated RNA from these samples was treated with DNase for 15 min at room temperature (Qiagen, Valencia, Calif.). 100 ng of DNA-free total poly-A tail RNA (mRNA) was first subjected to synthesis of cDNA using Oligo dT primers applying SuperScript III First-Strand Synthesis System from Invitrogen (Invitrogen, Carlsbad, Calif.) according to the manufacturer's instructions. cDNA from 20 ng of total RNA was then subjected to real-time RT-PCR using predesigned taqman probe primers specific for rat Scn5a (Rn00565502), Kcnip2 (Kchip2; Rn01411451) and kcnd2 (Rn01456260) (Applied Biosystems, California). No-template controls and no-RT controls were run during each experiment to detect any RNA and/or DNA contamination. Results are expressed as fold expression of gene of interest normalized to GAPDH expression in the sample. Western blotting: Control and treated cardiac myocytes were washed in cold PBS, lysed directly in the modified loading buffer (25 mmol/l Tris.HCl; 150 mmol/l NaCl; 1 mmol/l EDTA; 4 mmol/l NaF; 2 mmol/l Sodium ortho-vanadate; 1% Triton X-100, protease inhibitor, 5% glycerol, 1% SDS, 0.05% bromophenol blue, 5% β mercaptoethanol) and sonicated. The lysate (20 μl) were then subjected SDS-PAGE as described earlier. The blots were incubated with rabbit pFOXO1 antibody, 1:500 (Cell Signaling) or rabbit GAPDH antibody, 1:5000 (Sigma-Aldrich, St. Louis, Mo.). Patch-clamp experiments: Whole-cell ionic currents were recorded from adult rat ventricular myocytes. All recordings were conducted at room temperature. Sodium current recordings were conducted in a low-sodium extracellular solution containing (in mM): NaCl, 10; MgCl2, 1; CaCl2, 1.8; CdCl2, 0.1; HEPES, 20; CsCl, 127.5; glucose, 11. The pipette solution contained (in mM): NaCl, 5; CsF, 135; EGTA, 10; MgATP, 5; HEPES, 5. To characterize the voltage dependence of the peak INa, single cells were held at −120 mV, and 200 msec voltage steps were applied from −90 to +30 mV in 5 mV increments. The interval between voltage steps was 3 sec. Voltage-dependence of inactivation was assessed by holding cells at various potentials from −160 to −40 mV followed by a 30 msec test pulse to −40 mV to elicit INa. […]

[6] = test system: FOXO1; test: Western blot of FOXO1 phosphorylation; assay type: cell-based, rat
Description: as §3, with “The blots were incubated with rabbit pFOXO1 antibody, 1:500 (Cell Signaling) or rabbit GAPDH antibody, 1:5000 (Sigma-Aldrich, St. Louis, Mo.).” left out, “All recordings were conducted at room temperature. Sodium current recordings were conducted in a low-sodium extracellular solution containing (in mM): NaCl, 10; MgCl2, 1; CaCl2, 1.8; CdCl2, 0.1; HEPES, 20; CsCl, 127.5; glucose, 11. The pipette solution contained (in mM): NaCl, 5; CsF, 135; EGTA, 10; MgATP, 5; HEPES, 5. To characterize the voltage dependence of the peak INa, single cells were held at −120 mV, and 200 msec voltage steps were applied from −90 to +30 mV in 5 mV increments. The interval between voltage steps was 3 sec.” left out

[7] = test system: KCND2; test: qPCR mRNA expression; assay type: cell-based, rat; conditions: 1 ng/ml, 72 hr
Description: as §3

[8] = test system: SCN5A; test: qPCR mRNA expression; assay type: cell-based, rat
Description: as §3

[9] = test system: KCNIP2; test: qPCR mRNA expression; assay type: cell-based, rat; conditions: 1 ng/ml, 72 hr
Description: as §3

In the case of “Gal-3: recombinant human Gal-3 (EMD chemicals, USA)”, the “proliferation (number) of adult sheep atrial myofibroblasts” value [1] is reported as “increased the number of adult sheep atrial myofibroblasts in a concentration-dependent manner; also recorded: increases proliferation” and the “rate of migration / wound healing” value [2] is reported as “significantly increased the rate of migration and promoted wound healing; also recorded: increases the rate of wound healing”.
For “TGF-β1: exogenous TGF-β1 cytokine (R and D systems, Minneapolis, Minn.)”, the “peak Ito” value ([3]; 1 ng/ml) was “significantly reduced the peak Ito but to a much modest level”, the Ito current density ([3]; 10 ng/ml, 60 mV) was 12.6±0.98 and the “Ito current density, % of control levels” value ([3]; 10 ng/ml, 60 mV) was 57%. The “reduction of Ito current density” value ([3]; 10 ng/ml, +20 mV) was 42%, the APD30 ([4]; 10 ng/ml, BCL 1000 ms) was 29.1 ± 5.6 ms and the “APD30 times larger than control” value ([4]; 10 ng/ml, BCL 1000 ms) was over 3.5 times. The “APD / early afterdepolarizations” value ([4]; 50 ng/ml) was “APD was so prolonged that some cells early after depolarizations (EADs)”, the “more inward current compared to control medium” value ([5]; 1 ng/ml, at −40V (so in the source)) was “about 40%” and the “EC50 for increase of peak inward INa density” value ([5]; 72 hours, 0.001-1.0 ng/ml) was 0.007 ng/mL. For the same molecule, the “voltage dependence of activation (m∞) and inactivation (h∞)” value ([5]; 72 hr treatment) was “neither the m∞ nor the h∞ curve was modified”, the “maximum INa increase” value ([5]; at 1 ng/ml (also seen at 10 ng/ml), 72 hours) was “about 40%” and the “increase in phosphorylated FOXO1 vs control” value ([6]; 1 ng/ml) was 67%. The “time of peak FOXO1 phosphorylation” value ([6]; 1 ng/ml) was 15 min, the “decrease of KCND2 expression with respect to control” value [7] was 50.6% and the “SCN5A transcript levels, fold increase” value ([8]; 1 ng/ml, 72 hr) was 1.73±0.26 fold. The “reduction of KCNIP2 mRNA levels” value [9] was 77%.
In the case of `O=c1cc(N2CCOCC2)oc2c(-c3ccccc3)cccc12` [LY 29004, reference compound], the “phosphorylation of FOXO1 in TGF-β1 treated cells” value ([6]; pretreated with PI3K inhibitor) is reported as “inhibited” and the “TGF-β1 induced increase in SCN5A transcription” value ([8]; pretreated with PI3K inhibitor (10 μM, 30 min)) is reported as “failed to show increased SCN5A transcription”.
